Measured values as given in patent US20200138921A1, “METHODS OF PREVENTING AND TREATING DISEASES CHARACTERIZED BY SYNAPTIC DYSFUNCTION AND NEURODEGENERATION INCLUDING ALZHEIMER'S DISEASE” (The Trustees of Columbia University in the City of New York, priority 2017, published 2020).

Key:
PSD95 = assay: Western blot of PSD95 in hippocampal neurons; assay type: cell-based, rat; settings: neurons pretreated with 300 nM TOP, oAβ for 24 hours
Experimental: (§1) Whole frozen mouse hippocampi, human brain specimens, and cultured cells were homogenized in RIPA buffer (ThermoFisher) supplemented with protease and phosphatase inhibitor cocktail (ThermoFisher), using a Teflon dounce homogenizer and centrifuged at 14,000 rpm for 10 minutes at 4° C. Supernatants were collected, normalized by BCA assay (ThermoFisher), and prepared for loading using sample buffer (SB) 4× (ThermoFisher) and dithiothreitol (DTT) 10× (ThermoFisher).
To further test whether increasing Ube3A could rescue the effects of oAβ, cultured primary hippocampal neurons (14 DIV) were pretreated with 300 nM of TOP or control PBS. The neurons were then treated with oAβ for 24 hours, and whole cell lysates prepared for Western blot analysis, or fixed for microscopy.
Cells were also assessed for localization of PSD95 and NMDAR1, markers of postsynaptic terminals. Cells treated with TOP had increased levels of PSD95 and NMDAR1 (FIGS. 11B and 11C).

Ube3A [1] = assay: Ube3A protein in hippocampus of wild-type mice after a single TOP injection; assay type: in vivo; settings: single bilateral hippocampal injection of TOP 275 μg
Experimental: as §1
Controls were wild type mice injected with PBS.

Ube3A [2] = assay: Ube3A protein in hippocampus of J20 AD mice; assay type: in vivo; settings: single bilateral TOP injection 275 μg at 9-10 months, measured at 11-12 months
From the text: The J20 transgenic mouse line also used in the studies expresses a mutated human APP (hAPP: K670N/M671L and V717F) under the control of the platelet-derived growth factor promoter (Mucke et al. 2000). These mice have deficits in learning and memory, inhibition of long-term potentiation, loss of dendritic spines, profuse amyloid plaques, and increased phosphorylation of the tau protein. These mice also have increased RhoA-GTP activity and progressive decrease in spinal density when treated with oligomeric Aβ. See Pozueta et al. 2013.
as §1
Controls were wild-type mice and J20 mice injected with PBS.

[3] = test system: primary hippocampal neurons; assay type: cell-based, rat; settings: neurons 21 DIV, oAβ for 24 hours (data not shown)
c-Abl = assay: Western blot of phosphorylated c-Abl; assay type: cell-based, rat; settings: oAβ treated vs vehicle (FIG. 4)
From the text: FIG. 4A is a quantification of Western blots of phosphorylated c-Abl in vehicle treated (control) and DPH treated hippocampal neurons. FIG. 4B is a quantification of Western blots of phosphorylated Ube3A in vehicle treated (control) and DPH treated hippocampal neurons. […] FIG. 4D is a quantification from Western blots of phosphorylated Ube3A in vehicle treated (control), oAβ treated, and oAβ with STI treated hippocampal neurons. Graphs represent mean values and standard deviation. Significance determined by unpaired student's t-test in FIGS. 4A and 4B, and one-way ANOVA followed by Tukey Post Hoc multiple comparisons in FIGS. 4C and 4D.
It was hypothesized that oAβ could affect the ligase function of Ube3A. One important regulatory mechanism of Ube3A is through c-Abl-mediated phosphorylation tyrosine residue 636 (Y636), which impairs its E3 ligase activity (Chan et al. 2013). […] Since phospho-Ube3A antibodies are not available it was decided to test the hypothesis in B35 neuroblastoma cell line overexpressing HA-tagged Ube3A for immunoprecipitation.

EphB2 = assay: Western blot of surface expressed EphB2 in hippocampal neurons; assay type: cell-based, rat; settings: oAβ treated
Experimental: Enriched primary rat hippocampal neurons, cultured for 21 days in vitro, were treated with synthetic soluble oligomeric Aβ1-42 (hereinafter “oAβ”) for 24 hours. No cell death was detected under these conditions (data not shown).
(§2) Since Ube3A is also expressed in astrocytes (Grier et al. 2015), it was determined whether Ube3A levels were also altered in these cells.

Ube3A [4] = assay: Ube3A levels in astrocyte-enriched cultures; assay type: cell-based, rat; settings: astrocyte-enriched cultures treated with oAβ (results not shown)
Experimental: as §2

Ube3A mRNA = assay: qPCR of Ube3A mRNA in hippocampal neurons; assay type: cell-based, rat; settings: oAβ for 24 hours (results not shown)
Experimental: Neurons were lysed and total RNA was extracted using TRIzol reagent (Ambion) following the manufacturer's protocol. RNA concentration and purity were assessed by measuring the optical density at 260 and 280 nm with a NanoDrop (Thermo Scientific). cDNA was synthesized using the first-strand cDNA synthesis kit (Origene) with 1 μg of total RNA, following the manufacturer's instructions. Quantitative real-time PCR was performed using FastStart SYBR Green Master Mix (Roche) and an Eppendorf Realplex Mastercyler with the following cycle settings: 1 cycle at 95° C. for 10 min and 40 cycles of amplification, 95° C. for 15 s, 58-60° C. for 30-60 s, 72° C. for 30-60 s. The amounts of Ube3A mRNA were quantified and normalized to GAPDH mRNA using the following primer pairs: Ube3A forward 5′-[…]-3′ (SEQ ID NO: 3) and reverse 5′-[…]—3′ (SEQ ID NO: 4). The threshold cycles were determined and normalized to the threshold cycles of a GAPDH gene. Relative mRNAs levels for Ube3A were expressed as a fold induction in an experimental condition compared with a control condition.
In mammals, the Ube3A gene is subject to genomic imprinting, whereby only the maternal allele is expressed in neurons. The paternal allele is silenced through the expression of a Ube3A-antisense (Ube3A-ATS), transcribed as part of a large non-coding antisense transcript (Runte et al. 2001).

p53 = assay: Western blot of p53 in hippocampal neurons; assay type: cell-based, rat; settings: Aβ for 8-10 hours
Experimental: as §1
As observed in the Tg2576 mice hippocampi, the levels of Ube3A inversely correlated with the levels of Arc and Ephexin-5. To determine whether this correlation was also observed in hippocampal neurons, the cells were treated with Aβ for 8-10 hours, and whole cell lysates were collected for Western blot analysis.

Ephexin-1 = assay: Levels or activities of Ephexin-1 in hippocampal neurons; assay type: cell-based, rat; settings: hippocampal neurons treated with oAβ (results not shown)

| Compound | levels of PSD95 (PSD95) | persistence of increased Ube3A expression after the single injection (Ube3A [1]) | Ube3A expression in the hippocampus (Ube3A [1]; after 1 month) | levels of Ube3A in the hippocampus (Ube3A [2]) | cell death [3] | c-Abl phosphorylation (c-Abl) | levels of surface expressed EphB2 protein (EphB2) | Ube3A levels (Ube3A [4]) | levels of Ube3A mRNA (Ube3A mRNA) | levels of p53 (p53) | levels or activities of Ephexin-1 (Ephexin-1) |
| --- | --- | --- | --- | --- | --- | --- | --- | --- | --- | --- | --- |
| CC[C@@]1(O)C(=O)OCc2c1cc1n(c2=O)Cc2cc3c(CN(C)C)c(O)ccc3nc2-1 [TOP, topotecan] | increased | up to 5 months | sustained increase | increased |  |  |  |  |  |  |  |
| oAβ: synthetic soluble oligomeric Aβ1-42 |  |  |  |  | No cell death | induces | decrease | modest, but significant increase | did not show any differences | did not show any altered levels | no observation of any differences |
